Assays:
[1] = Inhibition of gamma-secretase-mediated amyloid beta-42 production in diluted 2B7 conditioned media after 5 hrs
[2] = Inhibition of gamma-secretase-mediated amyloid beta-40 production in diluted 2B7 conditioned media at 4 uM after 5 hrs
[3] = Inhibition of gamma-secretase-mediated amyloid beta-40 production in diluted 2B7 conditioned media after 5 hrs
[4] = Inhibition of gamma-secretase-mediated amyloid beta-40 production in diluted 2B7 conditioned media at 20 uM after 5 hrs

Row | SMILES | IC50 [1] [nM] | inhibition [2] [%] | IC50 [3] [nM] | inhibition [4] [%]
1 | CC(=O)O[C@@H]([C@H]1C[C@@H](C)[C@H]2[C@H](O1)[C@H](O)[C@@]1(C)[C@@H]3CC[C@H]4C(C)(C)[C@@H](O[C@@H](CO)OCCO)CC[C@@]45C[C@@]35CC[C@]21C)C(C)(C)O | 100 |  |  | 
2 | CC(=O)O[C@@H]([C@H]1C[C@@H](C)[C@H]2[C@H](O1)[C@H](O)[C@@]1(C)[C@@H]3CC[C@H]4C(C)(C)[C@@H](O[C@H]5CN(C6CCC6)CCO5)CC[C@@]45C[C@@]35CC[C@]21C)C(C)(C)O | 350 | 44 |  | 
3 | CC(=O)O[C@@H]([C@H]1C[C@@H](C)[C@H]2[C@H](O1)[C@H](O)[C@@]1(C)[C@@H]3CC[C@H]4C(C)(C)[C@@H](O[C@H]5CN(C(=O)c6ccno6)CCO5)CC[C@@]45C[C@@]35CC[C@]21C)C(C)(C)O | 70 |  | 4800 | 
4 | CC(=O)O[C@@H]([C@H]1C[C@@H](C)[C@H]2[C@H](O1)[C@H](O)[C@@]1(C)[C@@H]3CC[C@H]4C(C)(C)[C@@H](O[C@@H](CN(C)C)OCCN(C)C)CC[C@@]45C[C@@]35CC[C@]21C)C(C)(C)O | 2400 |  |  | 
5 | CC(=O)O[C@@H]([C@H]1C[C@@H](C)[C@H]2[C@H](O1)[C@H](O)[C@@]1(C)[C@@H]3CC[C@H]4C(C)(C)[C@@H](O[C@H]5CN(CC(=O)N(C)C)CCO5)CC[C@@]45C[C@@]35CC[C@]21C)C(C)(C)O | 140 |  | 9000 | 
6 | CC(=O)O[C@@H]([C@H]1C[C@@H](C)[C@H]2[C@H](O1)[C@H](O)[C@@]1(C)[C@@H]3CC[C@H]4C(C)(C)[C@@H](O[C@H]5CN(CCO)CCO5)CC[C@@]45C[C@@]35CC[C@]21C)C(C)(C)O | 240 | 46 |  | 
7 | COCCN1CCO[C@@H](O[C@H]2CC[C@]34C[C@]35CC[C@]3(C)[C@@H]6[C@H](O[C@@H]([C@H](OC(C)=O)C(C)(C)O)C[C@H]6C)[C@H](O)[C@@]3(C)[C@@H]5CC[C@H]4C2(C)C)C1 | 210 |  | 7600 | 
8 | CC(=O)O[C@@H]([C@H]1C[C@@H](C)[C@H]2[C@H](O1)[C@H](O)[C@@]1(C)[C@@H]3CC[C@H]4C(C)(C)[C@@H](O[C@H]5CN(C(=O)C6(C)COC6)CCO5)CC[C@@]45C[C@@]35CC[C@]21C)C(C)(C)O | 80 |  | 8000 | 
9 | CC(=O)O[C@@H]([C@H]1C[C@@H](C)[C@H]2[C@H](O1)[C@H](O)[C@@]1(C)[C@@H]3CC[C@H]4C(C)(C)[C@@H](O[C@H]5CN(CCN6CCOCC6)CCO5)CC[C@@]45C[C@@]35CC[C@]21C)C(C)(C)O | 160 | 49 |  | 
10 | CC(=O)O[C@@H]([C@H]1C[C@@H](C)[C@H]2[C@H](O1)[C@H](O)[C@@]1(C)[C@@H]3CC[C@H]4C(C)(C)[C@@H](O[C@H]5CN(Cc6ccccc6)CCO5)CC[C@@]45C[C@@]35CC[C@]21C)C(C)(C)O | 2000 | 4 |  | 
11 | CCCN1CCO[C@@H](O[C@H]2CC[C@]34C[C@]35CC[C@]3(C)[C@@H]6[C@H](O[C@@H]([C@H](OC(C)=O)C(C)(C)O)C[C@H]6C)[C@H](O)[C@@]3(C)[C@@H]5CC[C@H]4C2(C)C)C1 | 680 |  | 15900 | 
12 | CC(=O)O[C@@H]([C@H]1C[C@@H](C)[C@H]2[C@H](O1)C(=O)[C@@]1(C)[C@@H]3CC[C@H]4C(C)(C)[C@@H](O[C@@H]5OC[C@@H](O)[C@H](O)[C@H]5O)CC[C@@]45C[C@@]35CC[C@]21C)C(C)(C)O | 600 |  |  | 
13 | CC(=O)O[C@@H]([C@H]1C[C@@H](C)[C@H]2[C@H](O1)[C@H](O)[C@@]1(C)[C@@H]3CC[C@H]4C(C)(C)[C@@H](O[C@H]5CN(C6CCOCC6)CCO5)CC[C@@]45C[C@@]35CC[C@]21C)C(C)(C)O | 180 | 38 |  | 
14 | C[C@@H]1C[C@H]([C@H](O)C(C)(C)O)O[C@H]2[C@H]1[C@@]1(C)CC[C@@]34C[C@@]35CC[C@H](O[C@@H]3OC[C@@H](O)[C@H](O)[C@H]3O)C(C)(C)[C@@H]5CC[C@H]4[C@]1(C)[C@H]2O | 3100 |  |  | 
15 | CC(=O)O[C@@H]([C@H]1C[C@@H](C)[C@H]2[C@H](O1)[C@H](O)[C@@]1(C)[C@@H]3CC[C@H]4C(C)(C)[C@@H](O[C@H]5CN(C)CCO5)CC[C@@]45C[C@@]35CC[C@]21C)C(C)(C)O | 130 |  | 3400 | 
16 | CC(=O)O[C@@H]([C@H]1C[C@@H](C)[C@H]2[C@H](O1)[C@H](O)[C@@]1(C)[C@@H]3CC[C@H]4C(C)(C)[C@@H](O)CC[C@@]45C[C@@]35CC[C@]21C)C(C)(C)O | 600 |  |  | 
17 | CC(=O)O[C@@H]([C@H]1C[C@@H](C)[C@H]2[C@H](O1)[C@H](O)[C@@]1(C)[C@@H]3CC[C@H]4C(C)(C)[C@@H](O[C@H]5CN(C(=O)c6cn(C)cn6)CCO5)CC[C@@]45C[C@@]35CC[C@]21C)C(C)(C)O | 130 |  |  | 44

Row | SMILES | IC50 [1] [nM] | inhibition [2] [%] | IC50 [3] [nM] | inhibition [4] [%]
18 | CC(=O)O[C@@H]([C@H]1C[C@@H](C)[C@H]2[C@H](O1)[C@H](O)[C@@]1(C)[C@@H]3CC[C@H]4C(C)(C)[C@@H](O[C@H]5CN(CC(C)(C)O)CCO5)CC[C@@]45C[C@@]35CC[C@]21C)C(C)(C)O | 230 |  | 9400 | 
19 | CC(=O)OC(C)(C)[C@H]1O[C@@]23O[C@@H]1C[C@@H](C)C2[C@@]1(C)CC[C@@]24C[C@@]25CC[C@H](O[C@@H]2OC[C@@H](O)[C@H](O)[C@H]2O)C(C)(C)[C@@H]5CC[C@H]4[C@]1(C)[C@H]3O (some centres undefined) | 3000 |  |  | 
20 | C[C@@H]1C[C@H]([C@H](O)C(C)(C)O)O[C@H]2[C@H]1[C@@]1(C)CC[C@@]34C[C@@]35CC[C@H](O)C(C)(C)[C@@H]5CC[C@H]4[C@]1(C)[C@H]2O | > 10000 |  |  | 
21 | CC(=O)O[C@@H]([C@H]1C[C@@H](C)[C@H]2[C@H](O1)[C@H](O)[C@@]1(C)[C@@H]3CC[C@H]4C(C)(C)[C@@H](O[C@H]5CN(CCC(=O)O)CCO5)CC[C@@]45C[C@@]35CC[C@]21C)C(C)(C)O | 490 |  | 18800 | 
22 | CC(=O)O[C@@H]([C@H]1C[C@@H](C)[C@H]2[C@H](O1)[C@H](O)[C@@]1(C)[C@@H]3CC[C@H]4C(C)(C)[C@@H](O[C@H]5CN(C(=O)N(C)C)CCO5)CC[C@@]45C[C@@]35CC[C@]21C)C(C)(C)O | 60 |  |  | 40
23 | CC(=O)O[C@@H]([C@H]1C[C@@H](C)[C@H]2[C@H](O1)[C@H](O)[C@@]1(C)[C@@H]3CC[C@H]4C(C)(C)[C@@H](O[C@H]5CN([C@H]6CCNC6=O)CCO5)CC[C@@]45C[C@@]35CC[C@]21C)C(C)(C)O | 200 |  | 7000 | 
24 | CC(=O)O[C@@H]([C@H]1C[C@@H](C)[C@H]2[C@H](O1)[C@H](O)[C@@]1(C)[C@@H]3CC[C@H]4C(C)(C)[C@@H](O[C@H]5CN(C6CC6)CCO5)CC[C@@]45C[C@@]35CC[C@]21C)C(C)(C)O | 1000 |  |  | 35
25 | CC(=O)O[C@@H]([C@H]1C[C@@H](C)[C@H]2[C@H](O1)[C@H](O)[C@@]1(C)[C@@H]3CC[C@H]4C(C)(C)[C@@H](O[C@H]5CN([C@@H]6CCNC6=O)CCO5)CC[C@@]45C[C@@]35CC[C@]21C)C(C)(C)O | 120 |  |  | 44
26 | CC(=O)O[C@@H]([C@H]1C[C@@H](C)[C@H]2[C@H](O1)[C@H](O)[C@@]1(C)[C@@H]3CC[C@H]4C(C)(C)[C@@H](O[C@H]5CN(C(C)=O)CCO5)CC[C@@]45C[C@@]35CC[C@]21C)C(C)(C)O | 90 |  | 13400 | 
27 | CC(=O)O[C@@H]([C@H]1C[C@@H](C)[C@H]2[C@H](O1)[C@H](O)[C@@]1(C)[C@@H]3CC[C@H]4C(C)(C)[C@@H](O[C@H]5CN(CC(F)(F)F)CCO5)CC[C@@]45C[C@@]35CC[C@]21C)C(C)(C)O | 1190 |  |  | 47
28 | CC(=O)O[C@@H]([C@H]1C[C@@H](C)[C@H]2[C@H](O1)[C@H](O)[C@@]1(C)[C@@H]3CC[C@H]4C(C)(C)[C@@H](O[C@H]5CN(C(=O)CC6CC6)CCO5)CC[C@@]45C[C@@]35CC[C@]21C)C(C)(C)O | 130 |  |  | 38
29 | CC(=O)O[C@@H]([C@H]1C[C@@H](C)[C@H]2[C@H](O1)[C@H](O)[C@@]1(C)[C@@H]3CC[C@H]4C(C)(C)[C@@H](O[C@H]5CN(S(C)(=O)=O)CCO5)CC[C@@]45C[C@@]35CC[C@]21C)C(C)(C)O | 80 |  |  | 40
30 | CC(=O)O[C@@H]([C@H]1C[C@@H](C)[C@H]2[C@H](O1)[C@H](O)[C@@]1(C)[C@@H]3CC[C@H]4C(C)(C)[C@@H](O[C@H]5CN(CC(=O)O)CCO5)CC[C@@]45C[C@@]35CC[C@]21C)C(C)(C)O | 370 |  | 14000 | 
31 | CC(=O)O[C@@H]([C@H]1C[C@@H](C)[C@H]2[C@H](O1)[C@H](O)[C@@]1(C)[C@@H]3CC[C@H]4C(C)(C)[C@@H](O[C@H]5CN(CC(N)=O)CCO5)CC[C@@]45C[C@@]35CC[C@]21C)C(C)(C)O | 150 |  | 7800 | 
32 | CCN1CCO[C@@H](O[C@H]2CC[C@]34C[C@]35CC[C@]3(C)[C@@H]6[C@H](O[C@@H]([C@H](OC(C)=O)C(C)(C)O)C[C@H]6C)[C@H](O)[C@@]3(C)[C@@H]5CC[C@H]4C2(C)C)C1 | 190 | 42 |  | 
33 | CC(=O)O[C@@H]([C@H]1C[C@@H](C)[C@H]2[C@H](O1)[C@H](O)[C@@]1(C)[C@@H]3CC[C@H]4C(C)(C)[C@@H](O[C@H]5CN(Cc6ncc[nH]6)CCO5)CC[C@@]45C[C@@]35CC[C@]21C)C(C)(C)O | 120 | 38 |  | 
